In assay [1] the target is T1, human recombinant Yes [a.a. 2–543 (end)] (Homo sapiens, UniProt P07947).
T1 construct: human recombinant Yes [a.a; 2–543 (end)]; purchased BPS Bioscience 40488
Briefly: ADP-Glo kinase assay, IC50 determination (dose-response curves) for Yes. The class given is biochemical. The settings on record: for dose-response relationship (DRR): IC50 determination; for "inhibition activity" in the whole range of concentrations: dose-response test, no DRR; for pIC50: 5.5-nmol L−1 Yes, 0.013-mmol L−1 ATP, 0.2-mg mL−1 substrate (poly Glu-Tyr, 4:1). How it is done:
All inhibitory assays of the phosphorylation activity of Yes were performed in accordance with the Promega Technical Manual for the ADP-Glo™ Kinase Assay (Fitchburg, WI, USA. Catalog number: V9102). The human recombinant Yes [a.a. 2–543 (end)] was purchased from BPS Bioscience (catalog number: 40488). The details of the assay protocol and reagent information are given elsewhere.
The screening was conducted in three steps consisting of the first screening, the second screening, and the IC50 determination, as can be illustrated in Fig. 1b. First, we determined the inhibition rates of the 1,991 compounds. Each compound was placed in 4 wells of a 384-well plate. In total, 80 compounds were assayed on one plate and the other wells were used for positive and negative controls. The compounds were randomly placed on plates so that compounds proposed by one group were not placed on a plate together. A mean of four inhibition rates for each compound was compared to criteria for the first screening. […] Second, the inhibition rates of the screened compounds were determined on one plate using the same procedure of the first screening, where compounds were dissolved from fresh powder. […] Screened compounds were then evaluated for their IC50 values. […]
determine their IC50 values. Each dose-response curve was initially built using 8-point, 2-fold serial dilutions starting at 100 μmol L−1, with each concentration point in 4 […]
Assay was carried out under the same conditions as the primary screening, in summary, the final reagent concentrations were 5.5-nmol L−1 Ye s , 0.013-mmol L−1 ATP, and 0.2-mg mL−1 substrate (poly Glu-Tyr peptides, Glu:Tyr=4:1).
The curves were analyzed by GraphPad Prism (sigmoidal fit with variable slope). IC50 […]
standard deviations of the measurements.

Assay [2] deals with T1, human recombinant Yes [a.a. 2–543 (end)]. Briefly: ADP-Glo kinase assay, inhibition rates of Yes phosphorylation activity (first and second screening). The class given is biochemical. The conditions noted are these: 10 μmol L−1 compound; for First screening IR (inhibition rate): mean of n = 4 wells; for Second screening IR (inhibition rate): dissolved from fresh powder, n = 4. In a few lines:
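ADP-Glo luminescence measured inhibition of human recombinant Yes (a.a. 2–543) phosphorylation activity. In the first screen, each compound ran in 4 wells and inhibition rates were averaged. The second screen retested hits as compounds dissolved from fresh powder.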
On the technique in general: ADP-Glo first removes unused ATP, then detects ADP through luciferase.

pIC50: −log10 of the molar value.

What is called pIC50 is the IC50 on a negative log10 scale, so that one unit is a factor of ten.

T1 sequence (P07947 2-543): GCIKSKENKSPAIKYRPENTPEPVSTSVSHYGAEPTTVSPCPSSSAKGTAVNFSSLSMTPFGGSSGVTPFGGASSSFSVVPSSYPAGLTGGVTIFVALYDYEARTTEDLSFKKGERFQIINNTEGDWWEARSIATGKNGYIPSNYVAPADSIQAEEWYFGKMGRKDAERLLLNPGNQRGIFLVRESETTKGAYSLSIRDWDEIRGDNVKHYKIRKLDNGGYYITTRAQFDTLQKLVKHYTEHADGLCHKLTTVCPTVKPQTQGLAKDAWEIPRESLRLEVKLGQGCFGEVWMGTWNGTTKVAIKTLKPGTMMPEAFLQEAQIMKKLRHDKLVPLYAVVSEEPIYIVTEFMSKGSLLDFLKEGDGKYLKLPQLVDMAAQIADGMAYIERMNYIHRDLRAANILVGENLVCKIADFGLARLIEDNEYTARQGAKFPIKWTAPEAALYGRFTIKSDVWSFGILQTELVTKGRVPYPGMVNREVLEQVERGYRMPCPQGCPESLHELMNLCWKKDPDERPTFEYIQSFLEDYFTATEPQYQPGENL

`CC(=O)Nc1ccc(/C=N/Nc2ncnc3cc(-c4ccc(F)cc4)sc23)cc1` [Compound Z50080181]: in assay [1], the “dose-response relationship (DRR)” value is reported as “did not reveal a DRR” and the “"inhibition activity" in the whole range of concentrations” value (shortened to “"inhibition activity" in the whole range”) is listed as “around 50%”. For the same molecule, in assay [2], the “First screening IR (inhibition rate)” value was 51% and the “Second screening IR (inhibition rate)” value is listed as 47%.

In the case of `Fc1ccc(-c2cc3ncnc(N/N=C/c4ccncc4)c3s2)cc1` [Compound Z50080378], in assay [1], the “dose-response relationship (DRR)” value is recorded as “did not reveal a DRR” and the “"inhibition activity" in the whole range” value is reported as “around 50%”. For the same molecule, in assay [2], the “First screening IR (inhibition rate)” value is 67% and the “Second screening IR (inhibition rate)” value is recorded as 55%.

With `COc1ccc(Br)cc1/C=N/Nc1ncnc2nc[nH]c12` [Compound Z57745307], in assay [1], the “dose-response relationship (DRR)” value is listed as “did not reveal a DRR” and the “"inhibition activity" in the whole range” value is on record as “around 50%”. Also, in assay [2], the “First screening IR (inhibition rate)” value turned out to be 62% and the “Second screening IR (inhibition rate)” value turned out to be 61%.

In the case of `O=C(CSc1ccc2ccccc2n1)Nc1nsc(-c2ccc(Cl)cc2)n1` [Compound Z275023406], in assay [1], the pIC50 was 4.43 and the “dose-response relationship (DRR)” value is listed as “good DRR”. In addition, in assay [2], the “First screening IR (inhibition rate)” value is 67% and the “Second screening IR (inhibition rate)” value came out at 64%.

`Cc1cc(N2CCc3c(ncn3C3CC3)C2)c2cc(OC(F)F)ccc2n1` [Compound Z1252403274]: in assay [1], the pIC50 was 4.70 and the “dose-response relationship (DRR)” value is “good DRR”. Also, in assay [2], the “First screening IR (inhibition rate)” value is on record as 72% and the “Second screening IR (inhibition rate)” value came to 50%.

On to `CCCC(C)c1cc(NC(=O)c2ccc(N3CCNC3=O)cc2)n[nH]1` (stereo not drawn) [Compound Z1283491630], for which, in assay [1], the “dose-response relationship (DRR)” value is on record as “did not reveal a DRR” and the “"inhibition activity" in the whole range” value is recorded as “around 50%”. In addition, in assay [2], the “First screening IR (inhibition rate)” value turned out to be 29% and the “Second screening IR (inhibition rate)” value is listed as 49%.

Consider `Cc1ccc(-c2cc(-c3cccc(Br)c3)nc3ccccc23)cc1` [Compound Z1847669462], for which, in assay [2], the “First screening IR (inhibition rate)” value is given as 0%.

For the molecule `CC(C)c1ccc(Sc2ccc(N3CCC(C(=O)O)CC3)nn2)cc1` [Compound Z1863492097], in assay [2], the “First screening IR (inhibition rate)” value amounted to 1%.

In the case of `C#CCN(C)S(=O)(=O)c1cc(S(C)(=O)=O)sc1Cl` [Compound Z1863649257], the “First screening IR (inhibition rate)” value in assay [2] is recorded as -18%.

Take `C#CC(C)(C)N(C)S(=O)(=O)c1ccc(S(C)(=O)=O)cc1` [Compound Z1911236831]: the “First screening IR (inhibition rate)” value in assay [2] was -10%.

As to `CC(CNC(=O)c1ncncc1Br)CN1CCN(C)CC1` (stereo not drawn) [Compound Z1936607769], the “First screening IR (inhibition rate)” value in assay [2] was -11%.

In the case of `O=c1[nH]c2cc(Cl)ccc2c(-c2ccccc2)c1CN1CCCCC1` [Compound Z1980444406], the “First screening IR (inhibition rate)” value in assay [2] is given as 1%.

For the origin of these results see publication PMC5607274, “An iterative compound screening contest method for identifying target protein inhibitors using the tyrosine-protein kinase Yes” (Scientific Reports, 2017).
